“Also recorded” adds a separate entry of the source. Like-named read-outs stand apart in the source and are kept apart here.
Experiments:
[1] = Plasma pharmacokinetics after single oral doses of RTI-336 in healthy males; format: in vivo, human; settings: for half-life / AUC(0-inf) / Cmax / Tmax: male, human, plasma; for half-life: po
Procedure: (§1) RTI-336-001 was a single-center, double-blind, placebo-controlled, and randomized clinical trial to evaluate the safety, tolerability, and PK of single, escalating oral doses of RTI-336 (0.3, 1, 3, 6, 12, and 20 mg) in 2 cohorts (lowest 3 doses and highest 3 doses) of healthy male participants. RTI-336 and placebo capsules were identical in appearance, and participants, care providers, and those assessing outcomes were blinded to study drug assignment. Each cohort was to be enrolled in 2 groups of 5 participants (randomized 4:1 drug:placebo independently at each dose); the second group was dosed 24 h after the first group, following a safety review of the first group. Each participant would receive up to 3 single, escalating oral doses (in periods 1, 2, and 3) of study drug under fasting conditions, with a minimum of 10 days between doses, and could only participate in one cohort. The number of participants is typical for first-in-man safety and PK studies, and the trial ran to completion.
Blood samples were obtained at 0.25, 0.5, 1, 1.5, 2, 3, 4, 6, 8, 12, 16, 24, 30, 36, and 48 h post-dose. Cumulative urine specimens were collected over the intervals 0–6, 6–12, 12–24, 24–36, and 36–48 h post-dose.

[2] = tested on: healthy male participants; assay: Safety and tolerability of single, escalating oral doses (trial RTI-336-001); format: in vivo, human; settings: for serum total bilirubin elevation: day 3 post-dose
Procedure: as §1
Orthostatic vital signs (HR, systolic and diastolic blood pressure, and respiratory rate) were obtained pre-dose and at 1, 2, 4, 8, 12, 24, and 48 h post-dose. Body weight was measured at screening, on admissions to the clinic for dosing, and at 7 days following their final dose. Physical examinations of all major organ systems (including neurological examination) were performed at admission and at 48 h post-dose. Adverse events (AEs) were monitored from dosing until 8 days post-dose or resolution, whichever was longer.
Six-lead ECG telemetry was monitored from 15 min pre-dose until 8 h post-dose. Supine 12-lead ECGs were obtained pre-dose and at 1, 2, 4, 8, 12, 24, and 48 h post-dose.
Urine for urinalysis (bacteria, bilirubin, blood, glucose, ketones, leukocyte esterase, nitrite, pH, protein, red blood cells, specific gravity, urobilinogen, and WBC) was collected pre-dose and 48 h post-dose. Unfasted blood samples for chemistry (including troponin, albumin, alkaline phosphatase, ALT, AST, BUN, calcium, chloride, CK, creatinine, GGT, globulin, glucose, LDH, phosphorus, potassium, sodium, total bilirubin, total cholesterol, total protein, triglycerides, and uric acid) and hematology (basophils, eosinophils, Hct, Hgb, lymphocytes, RBC indices, monocytes, neutrophils, platelets, RBC, and WBC) were obtained on admission and fasted samples at 48 h post-dose.
The Mini Mental Status Examination (MMSE) ([Folstein et al., 1975]; [Malloy et al., 1997]) was performed on admission to the clinic and at 4 and 8 h post-dose.

dopamine reuptake = dopamine reuptake (Homo sapiens, UniProt Q01959); assay: Inhibition of dopamine reuptake; format: biochemical
rat = tested on: rat; set-up: method as in Carroll et al., 2006a,b; Carroll, 2007; Howell et al., 2007; settings: rat model, ref Carroll et al., 2006a,b, 2007, Howell et al.; cited from earlier work
rhesus monkey = tested on: rhesus monkey; set-up: method as in Carroll et al., 2006a,b; Carroll, 2007; Howell et al., 2007; settings: rhesus monkey model, ref Carroll et al., 2006a,b, 2007, Howell et al.; cited from earlier work
rats [3] = settings: rats co-administered RTI-336 with cocaine, ref data on file; cited from earlier work
[4] = co-administration with ethanol, ref data on file, RTI, cited from earlier work
[5] = co-administration with morphine; ref data on file, RTI; cited from earlier work
rats [6] = settings: acute and reversible with reduced dosing, preclinical toxicology; cited from earlier work
monkeys [7] = settings: acute and reversible with reduced dosing, preclinical toxicology; cited from earlier work
dog = settings: 3 mg/kg, 22 h after the dose, preclinical toxicology; cited from earlier work
mice [8] = settings: up to 75 mg/kg, preclinical toxicology; cited from earlier work
[9] = preclinical toxicology; cited from earlier work
monkeys [10] = settings: 9 mg/kg/day, 14-day; cited from earlier work
mice [11] = assay: Preclinical toxicology, seizures in mice
[12] = single oral dose 1 mg, fasted, healthy males
[13] = single oral dose 3 mg, fasted, healthy males
[14] = single oral dose 6 mg, fasted, healthy males
[15] = single oral dose 12 mg, fasted, healthy males
[16] = single oral dose 20 mg, fasted, healthy males
[17] = humans, single oral doses up to 20 mg

dopamine reuptake, sequence (Q01959 whole entry): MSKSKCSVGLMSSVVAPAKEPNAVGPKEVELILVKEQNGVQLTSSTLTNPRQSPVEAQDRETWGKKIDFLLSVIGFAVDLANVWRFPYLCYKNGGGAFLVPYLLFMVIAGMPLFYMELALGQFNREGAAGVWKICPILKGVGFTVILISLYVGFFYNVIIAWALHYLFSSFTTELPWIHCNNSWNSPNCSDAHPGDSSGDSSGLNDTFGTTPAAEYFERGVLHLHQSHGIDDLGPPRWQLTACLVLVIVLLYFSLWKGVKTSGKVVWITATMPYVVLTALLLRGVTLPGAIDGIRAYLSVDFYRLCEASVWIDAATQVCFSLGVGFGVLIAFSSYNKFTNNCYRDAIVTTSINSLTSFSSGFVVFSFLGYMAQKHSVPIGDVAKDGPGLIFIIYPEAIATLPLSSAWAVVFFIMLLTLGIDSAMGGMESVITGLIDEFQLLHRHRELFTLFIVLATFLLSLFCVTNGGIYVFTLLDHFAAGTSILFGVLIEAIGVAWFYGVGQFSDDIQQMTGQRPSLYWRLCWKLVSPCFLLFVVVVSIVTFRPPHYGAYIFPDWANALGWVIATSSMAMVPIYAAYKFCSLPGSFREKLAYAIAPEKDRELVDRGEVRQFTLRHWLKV

Cc1ccc(-c2cc([C@@H]3C4CCC(C[C@@H]3c3ccc(Cl)cc3)N4C)on2)cc1 (some centres unmarked) [RTI-336]
dose proportionality of plasma drug exposure (AUC0-inf) and Cmax ([1]; 1-20 mg single oral dose range): increased in proportion to dose; also recorded: increased dose proportionally
time of peak plasma RTI-336 concentration ([1]; across 1-20 mg single oral dose levels, fasted): around 4 h
half-life ([1]; 1 mg, single oral dose 1 mg, fasted, healthy males, read-out: t1/2 (converted)): 5.44 h
half-life ([1]; 3 mg, single oral dose 3 mg, fasted, healthy males, read-out: t1/2 (converted)): 7.07 h
half-life ([1]; 6 mg, single oral dose 6 mg, fasted, healthy males, read-out: t1/2 (converted)): 17.9 h
half-life ([1]; 12 mg, single oral dose 12 mg, fasted, healthy males, read-out: t1/2 (converted)): 15.3 h
half-life ([1]; 20 mg, across 6, 12 and 20 mg single oral doses, read-out: plasma half-life (converted)): ~17 h
half-life ([1]; 20 mg, single oral dose 20 mg, fasted, healthy males, read-out: t1/2 (converted)): 18 h
AUC(0-inf) [1, 12]: 3.8 ng·h/mL
Cmax [1, 12]: 0.375 ng/mL
Tmax [1, 12]: 4.5 h
AUC(0-inf) [1, 13]: 12.3 ng·h/mL
Cmax [1, 13]: 1.04 ng/mL
Tmax [1, 13]: 3.71 h
AUC(0-inf) [1, 14]: 40.4 ng·h/mL
Cmax [1, 14]: 3.26 ng/mL
Tmax [1, 14]: 4.38 h
AUC(0-inf) [1, 15]: 63.1 ng·h/mL
Cmax [1, 15]: 5.23 ng/mL
Tmax [1, 15]: 3.67 h
AUC(0-inf) [1, 16]: 115 ng·h/mL
Cmax [1, 16]: 10.3 ng/mL
Tmax [1, 16]: 3.43 h
serum total bilirubin elevation ([2]; 2 participants, transient and mild, resolved by day 8): < 1.5 × ULN
effects on the MMSE ([2]; 4 and 8 h post-dose): No effects were observed
participants with AEs ([2]; cumulative dose 6 mg or greater): 4 of 11
participants with AEs ([2]; cumulative doses less than 6 mg): 3 of 10
ECG abnormalities [2, 17]: no ECG abnormalities
behavioral stimulation (hyperactivity, stereotypic behavior) [2, 17]: no such behavioral stimulation
Adverse events ([2]; participant S031, cohort 1, period 2, 1 mg): Body temperature decreased
Adverse events ([2]; participant S031, cohort 1, period 3, 3 mg, cumulative 4 mg): Body temperature decreased, chalazion
Adverse events ([2]; participant S038, cohort 1, following 3 mg, cumulative 3.3 mg, possibly related to study drug): Somnolence^b
serum total bilirubin elevation ([2]; participant S046, 1 mg): 1.08 × ULN
total bilirubin ([2]; participant S046, 1 mg, day 3 post-dose (ULN 20.5; 13.68 pre-dose, 8.55 day 8)): 22.23
serum total bilirubin elevation ([2]; participant S046, 3 mg): 1.001 × ULN
total bilirubin ([2]; participant S046, 3 mg, day 3 post-dose (6.84 pre-dose, 5.13 day 8)): 20.52
Adverse events ([2]; participant S059, cohort 2, 6 mg): Soft tissue inflammation
serum total bilirubin elevation ([2]; participant S069, 6 mg): 1.25 × ULN
total bilirubin ([2]; participant S069, 6 mg, day 3 post-dose (10.26 pre-dose, 10.26 day 8)): 25.65
Adverse events ([2]; participant S069, cohort 2, 6 mg, related to their activities, not to study drug): Blood creatine phosphokinase increased
Adverse events ([2]; participant S078, cohort 2, 6, 12, 20 mg, cumulative 38 mg): Nasal congestion, pharyngolaryngeal pain
effects on other chemistry or hematology, urinalysis, vital sign, or ECG results ([2]; single oral doses 0.3-20 mg): No systematic RTI-336 effects were observed
tolerability ([2]; single oral doses 0.3-20 mg, healthy males): well-tolerated up to the maximum evaluated dose of 20 mg; also recorded: well-tolerated at single doses of up to 20 mg; also recorded: free of significant side effects or toxicity
maximum tolerated dose ([2]; single oral doses up to 20 mg): not identified
IC50 (dopamine reuptake): 23 nM
cocaine self-administration (rat): suppresses cocaine self-administration
cocaine self-administration (rhesus monkey): suppresses cocaine self-administration
effect on acute toxicity of cocaine (rats [3]): no potentiation of the acute toxicity of cocaine
effect on ethanol-related mortality [4]: did not increase ethanol-related mortality
effect on ethanol-induced incoordination ([4]; rota-rod performance): reduced ethanol-induced incoordination
effect on morphine-related analgesia [5]: did not affect morphine-related analgesia
effect on weight loss [5]: did increase weight loss
central nervous system adverse effects (rats [6]): central nervous system stimulation with hyperactivity and stereotypic behavior
central nervous system adverse effects (monkeys [7]): central nervous system stimulation with hyperactivity and stereotypic behavior
seizures (dog): observed only in one dog
seizures (mice [8]): did not occur
cardiovascular effects [9]: low potential for prolonging QTc interval
hepatotoxicity (monkeys [10]): increased ALT activity and/or bilirubin and mild-to-moderate diffuse or centrilobular vacuolar degeneration in hepatocytes
highest seizure-free dose (75 mg/kg) relative to oral ED50 for spontaneous locomotor activity (mice [11]): 7.5 fold
